This note sets out measurements from EPA's ToxValDB 9.5 (doi:10.2903/j.efsa.2015.3936).

The structures appear in SMILES notation.

The subject of one data set is Aphidius rhopalosiphi. Nature of the data set: LR50; higher = less toxic. The following applies: other; mortality.
The subject of a further data set is Typhlodromus pyri. The data set can be described thus: LR50; higher = less toxic. As to conditions: other; mortality.
Another data set relates to Folsomia candida. The following applies: chronic/long-term; duration: 28 days.
The subject of another data set is Rattus norvegicus. As to conditions: for NOAEL: chronic.
The next data set concerns Daphnia magna. As to conditions: chronic/long-term; duration: 21 days; reproduction.
In a further data set the test system is Oryctolagus sp. The following applies: developmental; development.
In a further data set the test system is Oncorhynchus mykiss. The following applies: chronic/long-term; duration: 21 days; growth.
The test system of the next data set is Apis mellifera. The following applies: acute, mortality.

Turning to `COC(=O)c1ccccc1S(=O)(=O)NC(=O)Nc1nc(C)nc(OC)n1` [Metsulfuron-methyl], the LR50 with Aphidius rhopalosiphi and in the data set on Typhlodromus pyri was greater than 8 g/ha each time. The NOEC is no less than 250 mg/kg in the data set on Folsomia candida; 0.83 mg/kg in the data set with Tagia sp. (chronic/long-term, duration: 56 days); 3.13 mg/L with Daphnia magna; 68 mg/L with Oncorhynchus mykiss. Besides, the LD50 was greater than 5000 mg/kg-day with Rattus norvegicus (acute, oral, mortality); greater than 2510 mg/kg-day with Anas platyrhynchos (acute, oral, unspecified); greater than 50 µg/piece in the data set on Apis mellifera (dermal); greater than 44.3 µg/piece with Apis mellifera (oral, unspecified). Besides, the NOAEL with Rattus norvegicus came out at 25 mg/kg-day; in the data set on Rattus norvegicus (duration: 2 years, body weight) it was 22.4 mg/kg-day; with Anas platyrhynchos (reproductive), 100 mg/kg-day; in the data set with Oryctolagus sp., 25 mg/kg-day. The LC50 in the data set on Tagia sp. (acute, duration: 14 days, mortality) was greater than 1000 mg/kg; in the data set with Anas platyrhynchos (short-term, oral, feed), greater than 1280 mg/kg-day.
